We go through 21 compounds from paper PMC9964404, “Molecular Modeling and In Vitro Evaluation of Piplartine Analogs against Oral Squamous Cell Carcinoma” (Molecules, 2023).

The structures appear in SMILES notation. Read-outs that look alike come from different tables or passages of the source.

By melting point is commonly meant the temperature, or range, at which the solid turns liquid.

One data set relates to SCC9 cells. The data set is described as follows: MTT cell viability (cytotoxicity) assay, SCC9. It is filed as cell-based, human. As to the method: (§1) SCC cells (SCC9 and SCC4), derived from human tongue OSCC, were obtained by (ATCC® CRL-1629 and CRL-1624) and maintained in DMEM/F12 1:1 medium (Dulbecco’s modified Eagle’s medium and Ham’s F12 medium, Gibco (Thermo Fisher, Waltham, MA, USA), supplemented with 10% (v/v) FBS (Fetal Bovine Serum; Invitrogen, Thermo Fisher, Waltham, MA, USA) and 400 ng/mL hydrocortisone (Sigma-AldrichCo., St. Louis, MO, USA). Primary normal gingival fibroblast human (PCS201 018TM) and other tumor cells B16-F10 (CRL-6475), Hep G2 (HB-8065), and HT-29 (HTB-38) were also obtained at ATCC and maintained in DMEM supplemented with 10% (v/v) FCS. Cells were cultured in a humidified environment containing 5% CO2 at 37 °C. For all experiments, the compounds were solubilized in DMSO (Sigma-Aldrich) for a final concentration of 100 mM. From this dilution, other concentrations were made to carry out the cell viability assay. Carboplatin (Fauldcarbo®; Libbs Farmacêutica, São Paulo, SP, Brazil) was used as a control antitumor compound.
(§2) The viability of cancer cells and primary fibroblasts was tested using the MTT assay as described in MACHADO et al., 2021 [49]. Briefly, cancer cells (5 × 10^3 cells/well) were plated in duplicate in a 96-well plate, as indicated. DMSO was diluted in culture medium at the same concentrations and was used as a negative control, representing 100% cell viability. After 48 h of treatment, cells were incubated for 3.5 h with 5 mg/mL of MTT reagent (3,4,5-dimethiazol-2,5-diphenyltetrazoliumbromide) (Sigma-Aldrich Co., St. Louis, MO, USA) diluted in culture medium. Subsequently, the formazan crystals were dissolved by MTT solvent (50% Methanol and 50% DMSO), and the absorbance was read at 560 nm using the EPOCH microplate spectrophotometer (BioTekInstruments, Winooski, VT, USA).
(§3) IC50 values for the MTT assay were obtained by non-linear regression using GraphPad Prism 5.0 software (GraphPad, San Diego, CA, USA) from at least three independent experiments. Data are presented as means, ± standard deviation (SD). A log dose response (inhibitor) vs. response curve using the least square method was used to determine the IC50 and SD of the data. The selectivity index was calculated as: S.I. = IC50 of the compound in fibroblasts/IC50 of the same compound in tumor cells.

Data set [1] relates to Primary Gingival Fibroblast. Kind of data set: MTT cell viability assay, normal fibroblasts. The note with it: 48 h treatment. It is filed as cell-based, human. How it is done:
as §1, §2, §3

A further data set relates to SCC4 cells. The data set is described as follows: MTT cell viability assay, SCC4. It counts as cell-based, human. How it is done: as §1, §2, §3
In general terms: Tetrazolium dyes change colour on reduction, which living cells bring about.

Data set [2] has as its system Oral Tumor Cells (SCC9, SCC4). The data set is described as follows: MTT cell viability assay, average of OSCC lines SCC9 and SCC4. It is filed as cell-based, human. How it is done:
as §1, §2
IC50 values for the MTT assay were obtained by non-linear regression using GraphPad Prism 5.0 software (GraphPad, San Diego, CA, USA) from at least three independent experiments. […] The selectivity index was calculated as: S.I. = IC50 of the compound in fibroblasts/IC50 of the same compound in tumor cells.

Another data set relates to mouse erythrocytes. Also on record: method as in PMID 16163826. The following applies: cited from earlier work.
[3] abbreviates: Homo sapiens, SCC-9, 48 h treatment, MTT, N.D. = not determined, not toxic to SCC cells, read-out: SCC9 IC50 (class N.D.).
Setting [4] is: Homo sapiens, SCC-9, 48 h treatment, MTT, read-out: SCC9 IC50.
Setting [5] is: Homo sapiens, SCC-9, 48 h treatment, MTT, read-out: SCC9 IC50 (µg/mL).
Where [6] appears, read: Homo sapiens, Fibroblast, read-out: Primary Gingival Fibroblast IC50.
The mark [7] stands for this setting: Homo sapiens, Fibroblast, read-out: Primary Gingival Fibroblast IC50 (µg/mL).
Setting [8] is: Homo sapiens, SCC-4, 48 h treatment, calculated as in Table 1, no cytotoxic effect in SCC4, read-out: SCC4 IC50 (class N.D.).

In the case of `COc1cc(C(=O)NCc2ccc(Cl)cc2)cc(OC)c1OC` [Compound 19, N-4-Chlorobenzyl-3,4,5–trimethoxybenzamide], the melting point lay in the range of 157 to 158 °C. Also, in the data set on SCC9 cells (setting [3]), the IC50 is more than 1000 µM.

For `COc1cc(C(=O)OCCC(C)C)cc(OC)c1OC` [Compound 6, Isopentyl 3,4,5–trimethoxybenzoate], the IC50 turned out to be 160 µM with SCC9 cells (setting [4]), 45.2 µg/mL in the data set on SCC9 cells (setting [5]), 570 µM in data set [1] (setting [6]) and 161 µg/mL in data set [1] (setting [7]).

On to `COc1cc(C(=O)NCC(C)C)cc(OC)c1OC` [Compound 14, N-Isobutyl-3,4,5–trimethoxybenzamide], for which the melting point fell in the range of 118 to 119 °C. In addition, the IC50 with SCC9 cells (setting [3]) was more than 1000 µM.

The compound `CCCOC(=O)c1cc(OC)c(OC)c(OC)c1` [Compound 3, Propyl 3,4,5–trimethoxybenzoate] registered a melting point of 34 to 35 °C. The IC50 in the data set with SCC9 cells (setting [4]) stood at 299 µM. Also, the IC50 with SCC9 cells (setting [5]) turned out to be 76 µg/mL. Also, in the data set with SCC4 cells (setting [8]), the IC50 was more than 1000 µM. Besides, the IC50 in data set [1] (setting [6]) was 1260 µM. In addition, the IC50 in data set [1] (setting [7]) came out at 319 µg/mL.

Compound `CCCCCCCCCCOC(=O)c1cc(OC)c(OC)c(OC)c1` [Compound 8, Decyl 3,4,5–trimethoxybenzoate] displayed a melting point of 49 to 50 °C. Also, the IC50 in the data set on SCC9 cells (setting [4]) came to 955 µM. The IC50 with SCC9 cells (setting [5]) worked out at 337 µg/mL.

`CCOC(=O)c1cc(OC)c(OC)c(OC)c1` [Compound 2, Ethyl 3,4,5–trimethoxybenzoate] had a melting point of 53 to 54 °C. In the data set with SCC9 cells, the “cytotoxic activity against SCC9 cells (in words)” value (“cytotoxic activity” below) was “no cytotoxic activity”. Further, in the data set with SCC9 cells (setting [3]), the IC50 was more than 1000 µM.

As to `COc1cc(C(=O)OC(C)C)cc(OC)c1OC` [Compound 4, Isopropyl 3,4,5–trimethoxybenzoate], the IC50 with SCC9 cells (setting [4]) was 373 µM; in the data set with SCC9 cells (setting [5]), 94.9 µg/mL; in data set [2] (Homo sapiens), 376 µM; in the data set on SCC4 cells (Homo sapiens, SCC-4, 48 h treatment, read-out: SCC4 IC50) it was 454 µM; in data set [1] (setting [6]) it was 1800 µM; in data set [1] (setting [7]), 456 µg/mL.

`COc1cc(C(=O)OCc2ccc3ccccc3c2)cc(OC)c1OC` [Compound 11, 2-Methylnaphthalene 3,4,5–trimethoxybenzoate] displayed a melting point of 84 to 85 °C. Also, the IC50 in the data set with SCC9 cells (setting [4]) was found to be 310 µM. Further, in the data set with SCC9 cells (setting [5]), the IC50 turned out to be 109 µg/mL. Moreover, the IC50 in data set [1] (setting [6]) is 3410 µM. For the same compound, the IC50 in data set [1] (setting [7]) stood at 1200 µg/mL.

`COc1cc(C(=O)NCc2ccccc2)cc(OC)c1OC` [Compound 17, N-Benzyl-3,4,5–trimethoxybenzamide] registered a melting point of 138 to 139 °C. In addition, the IC50 in the data set with SCC9 cells (setting [3]) is more than 1000 µM.

On to `COc1cc(C(=O)NC2CCCCC2)cc(OC)c1OC` [Compound 15, N-Cyclohexyl-3,4,5–trimethoxybenzamide], for which the melting point was 179 to 180 °C. Moreover, the IC50 in the data set on SCC9 cells (setting [3]) was more than 1000 µM.

On to `COc1cc(C(=O)O)cc(OC)c1OC` [3,4,5-Trimethoxybenzoic acid], for which, in the data set with SCC9 cells, the “cytotoxic activity” value was “inactive”. For the same compound, the IC50 with SCC9 cells (Homo sapiens, SCC-9, 48 h, read-out: SCC9 IC50 (class N.D.)) was more than 1000 µM.

In the case of `CCCCOC(=O)c1cc(OC)c(OC)c(OC)c1` [Compound 5, Butyl 3,4,5–trimethoxybenzoate], the IC50 with SCC9 cells (setting [4]) was 204 µM; in the data set on SCC9 cells (setting [5]), 54.8 µg/mL; in data set [1] (setting [6]), 510 µM; in data set [1] (setting [7]) it was 137 µg/mL.

For the compound `COC(=O)c1cc(OC)c(OC)c(OC)c1` [Compound 1, Methyl 3,4,5–trimethoxybenzoate], the figures for the IC50 with SCC9 cells (setting [4]) and in the data set with SCC9 cells (setting [5]) were 858 µM and 194 µg/mL, respectively.

The compound `COc1cc(C(=O)OCc2ccc(Br)cc2)cc(OC)c1OC` [Compound 10, 4-Bromo-benzyl 3,4,5–trimethoxybenzoate] came in with a melting point of 104 to 105 °C. Further, the “cytotoxic activity” value with SCC9 cells is “no cytotoxic activity”. The IC50 with SCC9 cells (setting [3]) was more than 1000 µM.

Regarding `COc1cc(C(=O)OC(c2ccccc2)c2ccccc2)cc(OC)c1OC` [Compound 12, Diphenyl 3,4,5–trimethoxybenzoate], the melting point lay in the range of 57 to 58 °C. Also, in the data set on SCC9 cells (setting [4]), the IC50 worked out at 830 µM. In addition, the IC50 in the data set with SCC9 cells (setting [5]) was 314 µg/mL.

The compound `COc1cc(C(=O)NCc2ccc(O)cc2)cc(OC)c1OC` [Compound 16, N-4-Hydroxybenzyl-3,4,5–trimethoxybenzamide] yielded a melting point of 227 to 229 °C. The IC50 with SCC9 cells (setting [3]) was more than 1000 µM.

Compound `CCCCNC(=O)c1cc(OC)c(OC)c(OC)c1` [Compound 13, N-Butyl-3,4,5–trimethoxybenzamide] yielded a melting point of 115 to 116 °C. The IC50 with SCC9 cells (setting [4]) came to 469 µM. The IC50 in the data set with SCC9 cells (setting [5]) came out at 125 µg/mL. In the data set with SCC4 cells (setting [8]), the IC50 was more than 1000 µM. Further, the IC50 in data set [1] (setting [6]) was 2360 µM. Also, the IC50 in data set [1] (setting [7]) amounted to 631 µg/mL.

As to `CCCCCOC(=O)c1cc(OC)c(OC)c(OC)c1` [Compound 7, Pentyl 3,4,5–trimethoxybenzoate], the IC50 amounted to 258 µM with SCC9 cells (setting [4]), 72.7 µg/mL in the data set on SCC9 cells (setting [5]), 418 µM in data set [1] (setting [6]) and 118 µg/mL in data set [1] (setting [7]).

Regarding `COc1cc(/C=C/C(=O)N2CCC=CC2=O)cc(OC)c1OC` [piplartine], the hemolytic activity result with mouse erythrocytes is “did not reveal hemolytic activity”.

Take `N.N.O=C([O-])C1(C(=O)[O-])CCC1.[Pt+2]` [Carboplatin, reference compound]: the “SCC9 IC50” value with SCC9 cells (48 h treatment, MTT) is given as 77.37 µg/mL. The IC50 turned out to be 208 µM in the data set with SCC9 cells (48 h treatment, MTT, read-out: SCC9 IC50); 192 µM in data set [2]; 175 µM with SCC4 cells (48 h treatment, read-out: SCC4 IC50); 512 µM in data set [1] (read-out: Primary Gingival Fibroblast IC50). Besides, the “Primary Gingival Fibroblast IC50” value in data set [1] is on record as 190.19 µg/mL.

In turn, `COc1cc(C(=O)NCc2ccc(F)cc2)cc(OC)c1OC` [Compound 18, N-(4-Fluorobenzyl)-3,4,5–trimethoxybenzamide] yielded a melting point of 131 to 132 °C. The “cytotoxic activity” value with SCC9 cells is “inactive”. Also, in the data set with SCC9 cells (setting [3]), the IC50 was more than 1000 µM.
